Assay results published in PubChem BioAssay AID248 (DTP/NCI, 2004).
Several values for one entry are separate records, joined by “and”; a condition that tells them apart may be missing. Identical values can stand only once. Inconclusive results and toxic doses are left out. No stated cut-off is given here; in the data, active means T/C of 150% or more; inactive means T/C below 125%.

System: L1210 leukemia ip in BDF1 mice, survival T/C
Assay: NCI In Vivo Anticancer Drug Screen. Data for tumor model L1210 Leukemia (intraperitoneal) in B6D2F1 (BDF1) mice
Settings: endpoint: mean survival time, higher = longer survival
Outline: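 Antitumor effect is assessed in tumor-bearing animals. Survival in the compound arm is compared with a vehicle-dosed control arm and expressed as their quotient.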

[1] = dose: 50.0 mg/kg/injection, schedule: Q01DX001 (ip), vehicle: saline
[2] = dose: 100.0 mg/kg/injection, schedule: Q01DX001 (ip), vehicle: saline
[3] = dose: 200.0 mg/kg/injection, schedule: Q01DX001 (ip), vehicle: saline
[4] = dose: 400.0 mg/kg/injection, schedule: Q01DX001 (ip), vehicle: saline
[5] = dose: 100.0 mg/kg/injection, schedule: Q04DX003 (ip), vehicle: saline
[6] = dose: 200.0 mg/kg/injection, schedule: Q04DX003 (ip), vehicle: saline

Measured: T/C

O=C(O)O.[Co].[NH-]CCN(CC[NH-])CC[NH-]
inactive: [1] 105 % of control | [2] 94 % of control | [3] 111 % of control | [4] 100 % of control

COC1OC(CN(CCCl)C(C)=O)C2OC(C)(C)OC12 (stereo unspecified)
inactive: dose: 50.0 mg/kg/injection, schedule: Q04DX003 (ip), vehicle: saline 96 % of control | [5] 94 % of control | [6] 92 % of control | dose: 400.0 mg/kg/injection, schedule: Q04DX003 (ip), vehicle: saline 100 % of control

COC(=O)C(C)C(O)c1ccc(C)cc1 (stereo unspecified)
inactive: dose: 50.0 mg/kg/injection, schedule: Q01DX009 (ip), vehicle: saline with Tween-80 93 % of control | dose: 100.0 mg/kg/injection, schedule: Q01DX009 (ip), vehicle: saline with Tween-80 93 % of control | dose: 200.0 mg/kg/injection, schedule: Q01DX009 (ip), vehicle: saline with Tween-80 93 % of control

O=C(NCCBr)C(F)(F)F
inactive: dose: 25.0 mg/kg/injection, schedule: Q01DX009 (ip), vehicle: saline 113 % of control | dose: 50.0 mg/kg/injection, schedule: Q01DX009 (ip), vehicle: saline 103 % of control | [2] 104 % of control | dose: 100.0 mg/kg/injection, schedule: Q01DX009 (ip), vehicle: saline 105 % of control | [3] 109 % of control | [4] 112 % of control

NNC(=O)c1ncn(C2OC(CO)C(O)C2O)c1C(=O)NN (stereo unspecified)
inactive: [1] 102 % of control | [2] 98 % of control | [3] 102 % of control | [4] 98 % of control

Cc1ccnc2c1ccc1ccccc12
inactive: [2] 100 % of control | [3] 98 % of control | [4] 93 % of control

CC(O)CN1CCCCC1 (stereo unspecified)
inactive: dose: 100.0 mg/kg/injection, schedule: Q01DX001 (ip), vehicle: other 98 % of control | dose: 100.0 mg/kg/injection, schedule: Q04DX003 (ip), vehicle: saline with Tween-80 96 % of control | dose: 200.0 mg/kg/injection, schedule: Q01DX001 (ip), vehicle: other 98 % of control | dose: 200.0 mg/kg/injection, schedule: Q04DX003 (ip), vehicle: saline with Tween-80 96 % of control

O=[N+]([O-])c1cc(COc2ccc(Cl)c(Cl)c2)ccc1Cl
inactive: dose: 100.0 mg/kg/injection, schedule: Q01DX009 (ip), vehicle: Klucel (hydroxypropylcellulose) (HPC) 95 % of control | dose: 100.0 mg/kg/injection, schedule: Q04DX002 (ip), vehicle: Klucel (hydroxypropylcellulose) (HPC) 97 % of control and 98 % of control and 102 % of control | dose: 200.0 mg/kg/injection, schedule: Q01DX009 (ip), vehicle: Klucel (hydroxypropylcellulose) (HPC) 93 % of control | dose: 200.0 mg/kg/injection, schedule: Q04DX002 (ip), vehicle: Klucel (hydroxypropylcellulose) (HPC) 96 % of control and 97 % of control and 110 % of control | dose: 200.0 mg/kg/injection, schedule: Q04DX002 (ip), vehicle: saline 102 % of control | dose: 400.0 mg/kg/injection, schedule: Q01DX009 (ip), vehicle: Klucel (hydroxypropylcellulose) (HPC) 96 % of control | dose: 400.0 mg/kg/injection, schedule: Q04DX002 (ip), vehicle: Klucel (hydroxypropylcellulose) (HPC) 93 % of control and 99 % of control and 103 % of control | dose: 400.0 mg/kg/injection, schedule: Q04DX002 (ip), vehicle: saline 97 % of control

Nc1cc(Cl)c(Cl)c(Cl)c1
inactive: dose: 88.8 mg/kg/injection, schedule: Q01DX001 (ip), vehicle: carboxymethylcellulose (CMC) 97 % of control and 100 % of control | dose: 100.0 mg/kg/injection, schedule: Q01DX001 (ip), vehicle: carboxymethylcellulose (CMC) 91 % of control | dose: 133.4 mg/kg/injection, schedule: Q01DX001 (ip), vehicle: carboxymethylcellulose (CMC) 94 % of control and 100 % of control | dose: 300.0 mg/kg/injection, schedule: Q01DX001 (ip), vehicle: carboxymethylcellulose (CMC) 97 % of control and 91 % of control | dose: 400.0 mg/kg/injection, schedule: Q01DX001 (ip), vehicle: carboxymethylcellulose (CMC) 91 % of control

ClC1=C(Cl)C2(Cl)C(Cl)CC1(Cl)C2(Cl)Cl (stereo unspecified)
inactive: [2] 97 % of control | [5] 110 % of control | [3] 90 % of control | [6] 96 % of control | [4] 97 % of control

Nc1ccc(C(=O)O)c(Cl)c1
inactive: dose: 100.0 mg/kg/injection, schedule: Q04DX003 (ip), vehicle: Klucel (hydroxypropylcellulose) (HPC) 100 % of control | dose: 200.0 mg/kg/injection, schedule: Q04DX003 (ip), vehicle: Klucel (hydroxypropylcellulose) (HPC) 99 % of control | dose: 400.0 mg/kg/injection, schedule: Q04DX003 (ip), vehicle: Klucel (hydroxypropylcellulose) (HPC) 97 % of control

CN(C)C(=O)c1cccc(COc2ccc(N)cc2Cl)c1
inactive: [5] 96 % of control | [6] 106 % of control
